Measurements reported in publication PMC3961306, “Comparison of the Cancer Gene Targeting and Biochemical Selectivities of All Targeted Kinase Inhibitors Approved for Clinical Use” (PLoS ONE, 2014).

Experiments:
Test in all cases: Kinase profiling in a biochemical assay panel (mobility shift assays and ELISA), %-inhibition at 1 μM; selectivity entropy
[1] = target: panel of more than 300 wild-type and mutant kinases (313 kinase panel) (Homo sapiens, UniProt Q9UKE5); settings: kinase TNIK; 1 μM
[2] = target: T1, panel of more than 300 wild-type and mutant kinases (313 kinase panel) (Homo sapiens, UniProt Q9NRM7); settings: kinase LATS2; compound at 1 μM
T1 sequence (Q9NRM7 1-1088): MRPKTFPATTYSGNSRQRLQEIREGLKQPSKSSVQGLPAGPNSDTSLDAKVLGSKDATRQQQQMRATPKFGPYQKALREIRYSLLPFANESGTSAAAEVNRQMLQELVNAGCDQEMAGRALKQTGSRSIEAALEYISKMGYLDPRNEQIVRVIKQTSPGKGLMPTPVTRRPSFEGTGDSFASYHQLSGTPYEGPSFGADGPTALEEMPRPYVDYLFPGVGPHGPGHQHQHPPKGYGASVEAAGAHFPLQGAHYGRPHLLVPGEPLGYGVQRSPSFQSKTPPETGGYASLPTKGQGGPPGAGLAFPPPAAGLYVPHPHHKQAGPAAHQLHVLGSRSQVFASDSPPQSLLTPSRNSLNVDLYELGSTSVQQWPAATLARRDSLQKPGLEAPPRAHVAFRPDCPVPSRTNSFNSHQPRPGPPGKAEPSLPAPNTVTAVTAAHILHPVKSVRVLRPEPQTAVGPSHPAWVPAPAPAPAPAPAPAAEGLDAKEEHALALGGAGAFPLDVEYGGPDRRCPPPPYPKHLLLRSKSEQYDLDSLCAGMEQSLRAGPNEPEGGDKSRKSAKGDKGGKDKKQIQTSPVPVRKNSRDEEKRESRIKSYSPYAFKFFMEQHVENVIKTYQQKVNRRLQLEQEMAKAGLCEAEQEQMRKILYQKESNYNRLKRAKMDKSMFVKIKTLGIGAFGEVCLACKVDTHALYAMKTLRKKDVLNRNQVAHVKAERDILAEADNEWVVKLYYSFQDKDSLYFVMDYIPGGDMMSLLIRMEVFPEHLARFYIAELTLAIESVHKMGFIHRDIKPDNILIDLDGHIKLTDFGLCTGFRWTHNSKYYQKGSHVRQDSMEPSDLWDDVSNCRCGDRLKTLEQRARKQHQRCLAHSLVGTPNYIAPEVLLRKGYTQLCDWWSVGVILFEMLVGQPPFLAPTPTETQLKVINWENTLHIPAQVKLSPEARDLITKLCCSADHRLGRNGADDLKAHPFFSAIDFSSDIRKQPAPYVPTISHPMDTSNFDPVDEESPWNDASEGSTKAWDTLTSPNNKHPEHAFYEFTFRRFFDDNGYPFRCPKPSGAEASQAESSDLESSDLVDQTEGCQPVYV

[3] = target: panel of more than 300 wild-type and mutant kinases (313 kinase panel) (Homo sapiens, UniProt P35916); settings: kinase FLT4; compound at 1 μM
[4] = target: panel of more than 300 wild-type and mutant kinases (313 kinase panel) (Homo sapiens, UniProt Q9Y5S2); settings: kinase MRCKβ; 1 μM
[5] = target: panel of more than 300 wild-type and mutant kinases (313 kinase panel) (Homo sapiens, UniProt Q13555)
[6] = target: T2, panel of more than 300 wild-type and mutant kinases (313 kinase panel) (Homo sapiens, UniProt Q8IW41); settings: kinase MAPKAPK5; compound at 1 μM
T2 sequence (Q8IW41 1-473): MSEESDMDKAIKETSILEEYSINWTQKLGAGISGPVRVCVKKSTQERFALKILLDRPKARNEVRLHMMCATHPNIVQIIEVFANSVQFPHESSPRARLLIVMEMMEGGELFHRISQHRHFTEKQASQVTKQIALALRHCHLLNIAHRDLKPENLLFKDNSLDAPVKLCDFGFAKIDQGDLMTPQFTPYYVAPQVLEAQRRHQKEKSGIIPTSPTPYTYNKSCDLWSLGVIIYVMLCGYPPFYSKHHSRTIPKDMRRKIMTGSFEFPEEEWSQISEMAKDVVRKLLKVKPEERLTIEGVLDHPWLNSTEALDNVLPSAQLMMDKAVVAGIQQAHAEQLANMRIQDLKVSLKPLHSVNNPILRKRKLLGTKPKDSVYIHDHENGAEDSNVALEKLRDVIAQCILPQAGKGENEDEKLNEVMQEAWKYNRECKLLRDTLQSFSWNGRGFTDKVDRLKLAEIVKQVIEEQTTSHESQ

[7] = target: T3, panel of more than 300 wild-type and mutant kinases (313 kinase panel) (Homo sapiens, UniProt Q13188)
T3 sequence (Q13188 1-491): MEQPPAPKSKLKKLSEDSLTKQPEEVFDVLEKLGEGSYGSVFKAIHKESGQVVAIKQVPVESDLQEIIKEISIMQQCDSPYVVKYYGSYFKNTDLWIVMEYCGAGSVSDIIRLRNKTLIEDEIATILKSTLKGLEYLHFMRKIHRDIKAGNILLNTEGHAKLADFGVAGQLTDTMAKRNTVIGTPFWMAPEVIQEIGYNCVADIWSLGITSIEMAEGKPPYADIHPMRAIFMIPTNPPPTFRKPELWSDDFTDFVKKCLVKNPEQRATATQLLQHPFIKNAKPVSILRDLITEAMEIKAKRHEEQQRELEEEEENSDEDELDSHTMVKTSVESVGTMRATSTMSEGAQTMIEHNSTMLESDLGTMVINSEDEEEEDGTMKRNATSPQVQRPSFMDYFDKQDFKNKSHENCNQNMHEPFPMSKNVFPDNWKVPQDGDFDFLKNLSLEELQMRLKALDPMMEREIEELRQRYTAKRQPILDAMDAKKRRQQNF

[8] = target: panel of more than 300 wild-type and mutant kinases (313 kinase panel) (Homo sapiens, UniProt P49840)

panel of more than 300 wild-type and mutant kinases (313 kinase panel) (Homo sapiens, UniProt Q9UKE5), sequence (Q9UKE5 whole entry, change not shown): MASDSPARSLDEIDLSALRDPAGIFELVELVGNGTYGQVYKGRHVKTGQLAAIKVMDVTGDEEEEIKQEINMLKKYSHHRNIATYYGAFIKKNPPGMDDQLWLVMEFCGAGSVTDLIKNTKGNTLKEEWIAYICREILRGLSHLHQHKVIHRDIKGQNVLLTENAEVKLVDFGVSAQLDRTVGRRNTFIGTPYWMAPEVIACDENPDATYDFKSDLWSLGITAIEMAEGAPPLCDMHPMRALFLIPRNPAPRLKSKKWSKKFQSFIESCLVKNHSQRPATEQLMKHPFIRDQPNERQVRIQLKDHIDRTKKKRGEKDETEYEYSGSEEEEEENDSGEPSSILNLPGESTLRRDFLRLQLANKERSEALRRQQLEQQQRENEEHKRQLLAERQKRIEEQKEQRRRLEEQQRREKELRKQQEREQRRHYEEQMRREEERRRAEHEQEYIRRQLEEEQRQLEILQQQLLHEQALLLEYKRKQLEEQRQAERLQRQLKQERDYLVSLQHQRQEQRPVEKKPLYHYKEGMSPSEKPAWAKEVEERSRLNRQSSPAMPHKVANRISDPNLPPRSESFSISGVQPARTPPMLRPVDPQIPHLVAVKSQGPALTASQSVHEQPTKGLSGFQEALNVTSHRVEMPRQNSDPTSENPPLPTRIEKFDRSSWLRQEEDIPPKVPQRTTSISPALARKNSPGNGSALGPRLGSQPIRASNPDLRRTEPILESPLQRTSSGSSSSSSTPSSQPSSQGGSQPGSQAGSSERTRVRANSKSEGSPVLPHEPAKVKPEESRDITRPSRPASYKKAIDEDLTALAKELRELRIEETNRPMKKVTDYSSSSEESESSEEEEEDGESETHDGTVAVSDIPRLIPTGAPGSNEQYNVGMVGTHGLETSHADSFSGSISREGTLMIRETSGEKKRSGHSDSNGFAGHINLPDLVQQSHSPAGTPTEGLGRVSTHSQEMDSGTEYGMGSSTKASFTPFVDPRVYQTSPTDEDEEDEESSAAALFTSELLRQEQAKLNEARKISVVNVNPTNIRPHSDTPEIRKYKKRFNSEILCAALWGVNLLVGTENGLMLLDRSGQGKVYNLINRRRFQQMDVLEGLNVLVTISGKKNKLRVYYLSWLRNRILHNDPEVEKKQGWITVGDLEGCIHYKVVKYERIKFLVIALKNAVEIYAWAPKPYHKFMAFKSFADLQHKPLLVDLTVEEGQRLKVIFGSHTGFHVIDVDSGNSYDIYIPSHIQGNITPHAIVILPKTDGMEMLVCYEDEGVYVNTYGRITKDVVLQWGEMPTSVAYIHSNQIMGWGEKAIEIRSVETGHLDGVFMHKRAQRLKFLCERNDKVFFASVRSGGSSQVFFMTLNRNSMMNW

| Structure (SMILES) | %-inhibition of TNIK [1] [%] | %-inhibition of LATS2 [2] [%] | %-inhibition of FLT4 [3] [%] | %-inhibition of MRCKβ [4] [%] | %-inhibition, CaMK2γ ([5]; kinase CaMK2γ, 1 μM compound) [%] | %-inhibition of MAPKAPK5 [6] [%] | %-inhibition of MST2 ([7]; kinase MST2, 1 μM) [%] | %-inhibition of GSK3α ([8]; kinase GSK3α, compound at 1 μM) [%] | %-inhibition of GSK3α ([8]; 1 µM) [%] | %-inhibition, CaMK2γ ([5]; 1 µM) [%] | %-inhibition of MST2 ([7]; 1 µM) [%] |
| --- | --- | --- | --- | --- | --- | --- | --- | --- | --- | --- | --- |
| CC(C)(C)c1nc(-c2cccc(NS(=O)(=O)c3c(F)cccc3F)c2F)c(-c2ccnc(N)n2)s1 [dabrafenib] | 15 | 0.57 | 85 | -2.85 | -5.47 |  |  |  |  |  |  |
| CCCS(=O)(=O)Nc1ccc(F)c(C(=O)c2c[nH]c3ncc(-c4ccc(Cl)cc4)cc23)c1F [vemurafenib] | 33 | -2.28 | 24 | -5 | -10 | 12 | 24 | 25 |  |  |  |
| Cc1nc(Nc2ncc(C(=O)Nc3c(C)cccc3Cl)s2)cc(N2CCN(CCO)CC2)n1 [dasatinib] |  | -7 | 31 |  | -3.57 |  |  |  |  |  |  |
| C[C@@H](Oc1cc(-c2cnn(C3CCNCC3)c2)cnc1N)c1c(Cl)ccc(F)c1Cl [crizotinib] | 11 | -6 | 48 | -2 | -10 | -3.19 | 13 | -2.56 |  |  |  |
| Cc1ccc(C(=O)Nc2ccc(CN3CCN(C)CC3)c(C(F)(F)F)c2)cc1C#Cc1cnc2cccnn12 [ponatinib] | 96 | 16 | 101 | 1.18 |  |  |  |  |  |  |  |
| O=S(=O)(c1cccc2cnccc12)N1CCCNCC1 [fasudil] | 4 | 22 | 5.61 |  | -3.38 | -1.65 | 1.77 | 0.911 |  |  |  |
| COc1cc(Nc2c(C#N)cnc3cc(OCCCN4CCN(C)CC4)c(OC)cc23)c(Cl)cc1Cl [bosutinib] | 102 | 28 | 92 | 66 |  | 0 |  |  | 9 | 8 |  |
| CO[C@H]1C[C@@H]2CC[C@@H](C)[C@@](O)(O2)C(=O)C(=O)N2CCCC[C@H]2C(=O)O[C@H]([C@H](C)C[C@@H]2CC[C@@H](OCCO)[C@H](OC)C2)CC(=O)[C@H](C)/C=C(\C)[C@@H](O)[C@@H](OC)C(=O)[C@H](C)C[C@H](C)/C=C/C=C/C=C/1C [everolimus] | -3 | -13 | -0.439 | 0.688 | -16 | -9 | -2.3 | -14 |  |  |  |
| Cc1ccc(Nc2nccc(N(C)c3ccc4c(C)n(C)nc4c3)n2)cc1S(N)(=O)=O [pazopanib] | 83 | -0.465 |  | 1.15 | 0.188 | -4 | 2 | 6.5 |  |  |  |
| CNC(=O)c1cc(Oc2ccc(NC(=O)Nc3ccc(Cl)c(C(F)(F)F)c3)c(F)c2)ccn1 [regorafenib] | 42 | -9.47 | 104 | -17 | -13 | -9 | -6.39 | 37 |  |  |  |
| CC(=O)Nc1cccc(-n2c(=O)n(C3CC3)c(=O)c3c(Nc4ccc(I)cc4F)n(C)c(=O)c(C)c32)c1 [trametinib] | 3 | 1.87 | 1.51 | -2.56 | 7 | -2.22 | -3 |  | 1.59 |  |  |
| CCN(CC)CCNC(=O)c1c(C)[nH]c(/C=C2\C(=O)Nc3ccc(F)cc32)c1C [sunitinib] | 94 |  |  |  |  |  |  |  |  |  |  |
| CO[C@H]1C[C@@H]2CC[C@@H](C)[C@@](O)(O2)C(=O)C(=O)N2CCCC[C@H]2C(=O)O[C@H]([C@H](C)C[C@@H]2CC[C@@H](OC(=O)C(C)(CO)CO)[C@H](OC)C2)CC(=O)[C@H](C)/C=C(\C)[C@@H](O)[C@@H](OC)C(=O)[C@H](C)C[C@H](C)/C=C/C=C/C=C/1C [temsirolimus] | -2.54 | -4.56 | -0.926 | -4 | -14 | -9 | -3.41 | -14 |  |  |  |
| CS(=O)(=O)CCNCc1ccc(-c2ccc3ncnc(Nc4ccc(OCc5cccc(F)c5)c(Cl)c4)c3c2)o1 [lapatinib] | 25 | -8 | -2.21 | -5 |  | -2.68 |  | -8 |  | 1.73 | -0.701 |
| COc1cc2c(Nc3ccc(Br)cc3F)ncnc2cc1OCC1CCN(C)CC1 [vandetanib] | 66 | -8 | 104 | -16 | -13 | -0.931 | -4 | -5.37 |  |  |  |
